Reference: patent publication US8980823B2, “Formulations of Factor VIIa inhibitors and utility” (priority 2012, dated 2015)
Entries after “also recorded” stand apart in the source; their conditions may differ.

Test system: Laser-induced CNV
Test: Laser-induced Choroidal Neovascularization (CNV) model
Type: in vivo, brown Norway rats
Details: single i-v injection on D0, evaluated D10; r-TFPI 0.2 ug; VIIa-i (Compound A-NO NP) 5.08 ug
Method: For Choroidal Neovascularization (CNV) induction in rats, brown Norway rats were anesthetized and pupils dilated. Argon red laser photocoagulation (50-um spot size, 0.05 sec duration) was used to generate 4 laser spots for each eye surrounding the optic nerve. A bubble forms at the laser spot indicating rupture of Bruch's membrane. The laser spots were evaluated for the presence of CNV on day 10 after laser treatment using confocal microscopy. Administration of test compounds: Immediately after CNV induction, test compounds were given once by intravitreal injection, i-v (VIIa-i versus r-TFPI). For characterization of efficacy in preventing laser-induced CNV in the eyes of rats, the incidence of CNV-positive or CNV-negative spots was determined by confocal microscopy. Rats were perfused with a FITC-dextran solution just prior to sacrifice. After the eyes were excised and choroidal flat mounts prepared, the mounts were stained with a mAb against mouse or rat elastin and then with CY3-conjugated secondary antibody. The prominent neovascular growth stains green whereas the underlying elastin in the Bruch's membrane stains red within the laser spot. The inhibition of new vessel growth is indicated by the absence of vessels with a green stain, and the size of the CNV is measured using Image Pro plus Software. […] Animals were sacrificed on D10, and CNV evaluated as described in methods.

**Q.** How did the “inhibition of laser-induced CNV” value turn out when “r-TFPI: recombinant tissue factor pathway inhibitor” was run?
**A.** highly effective in inhibiting laser-induced CNV; also recorded: significant reduction in neovascular growth
